Source: the NIST ThermoML archive (doi:10.1016/j.jct.2008.04.008)
Values joined by “and” are separate entries in the source; they are usually repeats but may differ in a detail not shown here. Identical values can stand only once. Numbers after ± are expanded uncertainties.

How the values were obtained:
[1] = Liquid
[2] = mn = molality of the nth substance listed, in mol/kg; conditions: Liquid; for speed of sound: Pulse-echo method

CO [methanol]
[1]
Conditions	mass density
283.15 K	800.575 ± 0.31 kg/m3 [middle of 4 runs]
288.15 K	795.888 ± 0.31 kg/m3 [middle of 4 runs]
293.15 K	791.194 ± 0.32 kg/m3 and 791.243 ± 0.3 kg/m3 and 791.184 ± 0.3 kg/m3
298.15 K	786.534 ± 0.31 kg/m3 and 786.475 ± 0.31 kg/m3 and 786.485 ± 0.32 kg/m3
303.15 K	781.758 ± 0.33 kg/m3 [middle of 4 runs]
308.15 K	777.058 ± 0.32 kg/m3 and 776.997 ± 0.32 kg/m3 and 777.007 ± 0.33 kg/m3
313.15 K	772.28 ± 0.32 kg/m3 and 772.219 ± 0.32 kg/m3 and 772.229 ± 0.33 kg/m3

Conditions	speed of sound [m/s]
[1], 298.15 K, 101.33 kPa, Pulse-echo method	1102.4 ± 0.91

CO [methanol] + [Br-].[Na+]
[2], m2 = 0
Conditions	mass density [kg/m3]
283.15 K	800.625 ± 0.29
288.15 K	795.934 ± 0.3
293.15 K	791.243 ± 0.3
298.15 K	786.534 ± 0.31
303.15 K	781.808 ± 0.31
308.15 K	777.058 ± 0.32
313.15 K	772.28 ± 0.32

CO [methanol] + [Br-].c1ccc([P+](c2ccccc2)(c2ccccc2)c2ccccc2)cc1
[2], m2 = 0
Conditions	mass density [kg/m3]
283.15 K	800.567 ± 0.32
288.15 K	795.88 ± 0.33
293.15 K	791.184 ± 0.33
298.15 K	786.475 ± 0.34
303.15 K	781.748 ± 0.34
308.15 K	776.997 ± 0.34
313.15 K	772.219 ± 0.35

CO [methanol] + [Na+].[O-][Cl+3]([O-])([O-])[O-]
[2], m2 = 0
Conditions	mass density [kg/m3]
283.15 K	800.568 ± 0.29
288.15 K	795.879 ± 0.3
293.15 K	791.184 ± 0.3
298.15 K	786.475 ± 0.31
303.15 K	781.746 ± 0.31
308.15 K	776.997 ± 0.32
313.15 K	772.219 ± 0.32

CO [methanol] + [Na+].c1ccc([B-](c2ccccc2)(c2ccccc2)c2ccccc2)cc1
[2], m2 = 0
Conditions	mass density [kg/m3]
283.15 K	800.575 ± 0.31
288.15 K	795.888 ± 0.31
293.15 K	791.194 ± 0.32
298.15 K	786.485 ± 0.32
303.15 K	781.758 ± 0.33
308.15 K	777.007 ± 0.33
313.15 K	772.229 ± 0.33

[Br-].[Na+] [sodium bromide] + CO
[2]
Conditions	mass density, 283.15 K [kg/m3]	mass density, 288.15 K [kg/m3]	mass density, 293.15 K [kg/m3]	mass density, 298.15 K [kg/m3]	mass density, 303.15 K [kg/m3]	mass density, 308.15 K [kg/m3]	mass density, 313.15 K [kg/m3]	speed of sound, 298.15 K [m/s]
m1 = 0.06477	805.613 ± 0.29	800.933 ± 0.29	796.252 ± 0.3	791.558 ± 0.3	786.848 ± 0.31	782.114 ± 0.31	777.354 ± 0.32	1106.1 ± 0.91
m1 = 0.08313	807.039 ± 0.29	802.363 ± 0.29	797.683 ± 0.3	792.99 ± 0.3	788.28 ± 0.31	783.548 ± 0.31	778.794 ± 0.32	1107.1 ± 0.91
m1 = 0.1039	808.613 ± 0.29	803.939 ± 0.29	799.259 ± 0.29	794.566 ± 0.3	789.865 ± 0.3	785.138 ± 0.31	780.385 ± 0.31	1107.7 ± 0.91
m1 = 0.1241	810.154 ± 0.28	805.482 ± 0.29	800.807 ± 0.29	796.119 ± 0.3	791.41 ± 0.3	–	–	1108.7 ± 0.91
m1 = 0.1439	811.667 ± 0.28	806.995 ± 0.29	802.323 ± 0.29	797.64 ± 0.3	792.938 ± 0.3	788.218 ± 0.31	783.471 ± 0.31	1109.1 ± 0.91
m1 = 0.1639	813.155 ± 0.28	808.489 ± 0.29	803.818 ± 0.29	799.135 ± 0.3	794.436 ± 0.3	789.716 ± 0.3	784.971 ± 0.31	–
m1 = 0.2071	816.441 ± 0.28	811.772 ± 0.28	807.109 ± 0.29	802.43 ± 0.29	797.736 ± 0.3	793.019 ± 0.3	788.281 ± 0.31	1111.8 ± 0.91
m1 = 0.2491	819.583 ± 0.28	814.916 ± 0.28	810.253 ± 0.28	805.577 ± 0.29	800.887 ± 0.29	796.174 ± 0.3	791.44 ± 0.3	1113.2 ± 0.91
m1 = 0.2915	822.759 ± 0.27	818.104 ± 0.28	813.441 ± 0.28	808.767 ± 0.29	804.078 ± 0.29	799.369 ± 0.3	794.64 ± 0.3	1114.9 ± 0.91
m1 = 0.3318	825.782 ± 0.27	821.118 ± 0.28	816.459 ± 0.28	811.79 ± 0.28	807.103 ± 0.29	802.396 ± 0.29	797.671 ± 0.3	1116.1 ± 0.92
m1 = 0.3735	828.905 ± 0.27	824.245 ± 0.27	819.585 ± 0.28	814.919 ± 0.28	810.236 ± 0.28	805.533 ± 0.29	800.808 ± 0.29	1117.6 ± 0.92
m1 = 0.4167	832.098 ± 0.26	827.443 ± 0.27	822.783 ± 0.27	818.116 ± 0.28	813.434 ± 0.28	808.735 ± 0.29	804.019 ± 0.29	1119.2 ± 0.92

[Na+].c1ccc([B-](c2ccccc2)(c2ccccc2)c2ccccc2)cc1 [sodium tetraphenylboron] + CO
[2]
Conditions	mass density, 283.15 K [kg/m3]	mass density, 288.15 K [kg/m3]	mass density, 293.15 K [kg/m3]	mass density, 298.15 K [kg/m3]	mass density, 303.15 K [kg/m3]	mass density, 308.15 K [kg/m3]	mass density, 313.15 K [kg/m3]	speed of sound, 298.15 K [m/s]
m1 = 0.02864	803.855 ± 0.3	799.183 ± 0.31	794.505 ± 0.31	789.813 ± 0.32	785.107 ± 0.32	780.377 ± 0.33	775.618 ± 0.33	–
m1 = 0.03742	804.851 ± 0.3	800.185 ± 0.31	795.511 ± 0.31	790.825 ± 0.32	786.118 ± 0.32	781.392 ± 0.32	776.646 ± 0.33	–
m1 = 0.04715	805.936 ± 0.3	801.274 ± 0.3	796.607 ± 0.31	791.928 ± 0.31	787.23 ± 0.32	782.507 ± 0.32	–	–
m1 = 0.05653	806.979 ± 0.3	802.323 ± 0.3	797.659 ± 0.31	792.985 ± 0.31	788.298 ± 0.32	783.585 ± 0.32	778.847 ± 0.33	–
m1 = 0.06567	807.991 ± 0.3	803.338 ± 0.3	798.679 ± 0.31	794.015 ± 0.31	789.33 ± 0.32	784.622 ± 0.32	779.888 ± 0.33	1114.1 ± 0.91
m1 = 0.07566	809.099 ± 0.3	804.455 ± 0.3	799.8 ± 0.31	795.14 ± 0.31	790.46 ± 0.32	785.759 ± 0.32	781.031 ± 0.32	1115.7 ± 0.91
m1 = 0.09526	811.246 ± 0.29	806.611 ± 0.3	801.967 ± 0.3	797.318 ± 0.31	792.652 ± 0.31	787.962 ± 0.32	783.246 ± 0.32	1119 ± 0.92
m1 = 0.1146	813.35 ± 0.29	808.726 ± 0.3	804.095 ± 0.3	799.453 ± 0.31	794.791 ± 0.31	790.107 ± 0.32	785.409 ± 0.32	1122.4 ± 0.92
m1 = 0.1339	815.434 ± 0.29	810.82 ± 0.29	806.2 ± 0.3	801.569 ± 0.3	796.921 ± 0.31	792.253 ± 0.31	787.56 ± 0.32	1125.7 ± 0.92
m1 = 0.1529	817.425 ± 0.29	812.819 ± 0.29	808.212 ± 0.3	803.59 ± 0.3	798.952 ± 0.31	794.294 ± 0.31	789.61 ± 0.32	1128.3 ± 0.92
m1 = 0.173	819.579 ± 0.28	814.984 ± 0.29	810.383 ± 0.29	805.772 ± 0.3	801.145 ± 0.3	796.5 ± 0.31	791.829 ± 0.3	1131.7 ± 0.92
m1 = 0.1931	821.677 ± 0.28	817.092 ± 0.29	812.503 ± 0.29	807.899 ± 0.3	803.28 ± 0.3	798.648 ± 0.31	793.987 ± 0.31	1135.5 ± 0.93

[Br-].c1ccc([P+](c2ccccc2)(c2ccccc2)c2ccccc2)cc1 [tetraphenylphosphorane bromide] + CO
[2]
Conditions	mass density, 283.15 K [kg/m3]	mass density, 288.15 K [kg/m3]	mass density, 293.15 K [kg/m3]	mass density, 298.15 K [kg/m3]	mass density, 303.15 K [kg/m3]	mass density, 308.15 K [kg/m3]	mass density, 313.15 K [kg/m3]	speed of sound, 298.15 K [m/s]
m1 = 0.0261	804.518 ± 0.32	799.837 ± 0.32	795.15 ± 0.33	790.45 ± 0.33	785.734 ± 0.34	780.996 ± 0.34	776.229 ± 0.34	1106.5 ± 0.91
m1 = 0.03452	805.776 ± 0.32	801.095 ± 0.32	796.408 ± 0.33	791.716 ± 0.33	787.003 ± 0.33	782.267 ± 0.34	777.504 ± 0.34	1107.7 ± 0.91
m1 = 0.04277	807.01 ± 0.32	802.333 ± 0.32	797.652 ± 0.32	792.957 ± 0.33	788.242 ± 0.33	783.515 ± 0.34	778.757 ± 0.34	1109.1 ± 0.91
m1 = 0.05089	808.208 ± 0.31	803.532 ± 0.32	798.856 ± 0.32	794.167 ± 0.33	789.459 ± 0.33	784.728 ± 0.34	779.972 ± 0.34	1110.1 ± 0.91
m1 = 0.05974	–	–	–	–	–	–	–	1111.4 ± 0.91
m1 = 0.06826	810.754 ± 0.31	806.084 ± 0.32	801.412 ± 0.32	796.727 ± 0.32	792.025 ± 0.33	787.301 ± 0.33	782.553 ± 0.34	1112.8 ± 0.92
m1 = 0.08592	813.321 ± 0.31	808.661 ± 0.31	803.994 ± 0.32	799.314 ± 0.32	794.618 ± 0.33	789.901 ± 0.33	785.158 ± 0.33	1115.3 ± 0.92
m1 = 0.1039	815.894 ± 0.31	811.236 ± 0.31	806.575 ± 0.31	801.901 ± 0.32	797.21 ± 0.32	792.499 ± 0.33	787.763 ± 0.33	1117.8 ± 0.92
m1 = 0.1212	818.357 ± 0.3	813.704 ± 0.31	809.048 ± 0.31	804.378 ± 0.32	799.693 ± 0.32	794.987 ± 0.33	790.256 ± 0.33	1119.9 ± 0.92
m1 = 0.1384	820.799 ± 0.3	816.147 ± 0.3	811.492 ± 0.31	806.831 ± 0.31	802.152 ± 0.32	797.452 ± 0.32	792.728 ± 0.33	1122.4 ± 0.92
m1 = 0.1565	823.304 ± 0.3	818.656 ± 0.3	814.011 ± 0.31	809.353 ± 0.31	804.679 ± 0.32	799.985 ± 0.32	795.267 ± 0.32	1124.7 ± 0.93
m1 = 0.1747	825.843 ± 0.3	821.2 ± 0.3	816.556 ± 0.3	811.905 ± 0.31	807.237 ± 0.31	802.548 ± 0.32	797.837 ± 0.32	1127 ± 0.93
